Experimental data: patent US6365769B1, “Perfluoroalkyl halides and derivatives” (3M Innovative Properties Company, priority 1991, dated 2002)

Experiments:
Format in all cases: physicochemical
[1] = Surface tension of the aqueous solution, Du Nouy tensiometer; settings: for SURFACE TENSION (dynes/cm) 100 ppm: 100 ppm in water; for SURFACE TENSION (dynes/cm) 500 ppm: 500 ppm in water
Description: (§1) The materials of the invention were diluted in water to 0.05% (500 ppm) and/or 0.01% (100 ppm), and the surface tension of the aqueous solution was measured using a Du Nouy tensiometer. Foam height was measured as volume in a graduated cylinder. Half-life time (t ½) is the time for half the liquid present in the foam to drain from the foam. The foam was generated by a wire wisk in a Hobart mixer. Thus, 200 mL of surfactant solution to be tested is placed in a bowl of Hobart Model N-50 mixer equipped with a wire wisk stirrer and stirred for 3 minutes at medium speed (setting 2=300 rpm). The foam produced was immediately transferred to a 4000 mL graduated cylinder for measuring foam height and half-life time.

[2] = Foam half-life time (drainage of half the liquid); settings: 500 ppm in water
Description: as §1

[3] = Foam height, foam generated in Hobart mixer; settings: 500 ppm in water; 200 mL solution stirred 3 minutes
Description: as §1

Molecule | SURFACE TENSION (dynes/cm) 100 ppm [1] | SURFACE TENSION (dynes/cm) 500 ppm [1] | further results
O=C(CC(C(=O)OCCC(F)(F)C(F)(F)C(F)(F)C(F)(F)F)S(=O)(=O)[O-])OCCC(F)(F)C(F)(F)C(F)(F)C(F)(F)F.[Na+] (centres unmarked) [C14, reference compound] | 30.5 dynes/cm | 21.7 dynes/cm | 
N.O=S(=O)(O)OCCC(F)(F)C(F)(F)C(F)(F)C(F)(F)C(F)(F)C(F)(F)C(F)(F)C(F)(F)F [Example 43, C8F17CH2CH2OSO3NH4] |  |  | HALF-LIFE TIME (SEC) / t ½ [2]: <30 s; SURFACE TENSION (dyne/cm) 500 ppm ([1]; 500 ppm as printed (second surface tension column of Tables 12, 14)): 22.8 dyne/cm; SURFACE TENSION (dyne/cm) 500 ppm ([1]; 500 ppm in water (first surface tension column of Tables 12, 14)): 19.5 dyne/cm; FOAM HEIGHT (VOLUME) [3]: 400
O=C(CC(C(=O)OCCC(F)(F)C(F)(F)C(F)(F)C(F)(F)F)S(=O)(=O)[O-])OCCC(F)(F)C(F)(F)C(F)(F)C(F)(F)F.[Na+] (centres unmarked) [Example 45, C4F9CH2CH2OC(O)CH2CH(SO3Na)C(O)OCH2CH2C4F9] | 24.2 dynes/cm | 17.7 dynes/cm | 
CC(C)(CNC(=O)CCSCCC(F)(F)C(F)(F)C(F)(F)C(F)(F)C(F)(F)C(F)(F)C(F)(F)C(F)(F)F)CS(=O)(=O)[O-].[K+] [Example 47, C8F17CH2CH2SCH2CH2C(O)NHCH2C(CH3)2CH2SO3K] | 24.0 dynes/cm | 19.0 dynes/cm | 
CC(C)(CNC(=O)CCNCCNCCC(=O)OCCC(F)(F)C(F)(F)C(F)(F)C(F)(F)C(F)(F)C(F)(F)C(F)(F)C(F)(F)F)CS(=O)(=O)[O-].[K+] [Example 55, C8F17CH2CH2OC(O)CH2CH2NHCH2CH2NHCH2CH2C(O)NHCH2C(CH3)2CH2SO3K] | 26.2 dynes/cm | 20.1 dynes/cm | 
CCS(=O)(=O)[O-].CC[N+](C)(C)CCOC(=O)CCNCCNCCC(=O)OCCC(F)(F)C(F)(F)C(F)(F)C(F)(F)C(F)(F)C(F)(F)C(F)(F)C(F)(F)F [Example 61, [C8F17CH2CH2OC(O)CH2CH2NHCH2CH2NHCH2CH2C(O)OCH2CH2N^+(CH3)2CH2CH3] [CH3CH2SO^−3]] | 21.3 dynes/cm | 19.9 dynes/cm | 
CCCCCCCCCC(O)C/[N+](C)=C/CCCS(=O)(=O)[O-] (centres unmarked) [Example 71] |  | 17.5 dynes/cm | 
C8F17C2H4O(C2H4O)nH [Example 69] |  | 21.7 dynes/cm | 
C8F17CH2CH2S(CH2CH2O)12(CH2CH(CH3)O)3H [Example 70] |  | 23.1 dynes/cm | 
